From PMC8863381 (Journal of Enzyme Inhibition and Medicinal Chemistry, 2022)
Like-named read-outs stand apart in the source and are kept apart here.

Experiments:
hCA XII = hCA XII (Homo sapiens, UniProt O43570); test: stopped flow CO2 hydrase assay, hCA XII; format: biochemical; conditions: for Selectivity ratio I/XII: KI hCA I / KI hCA XII; for Selectivity ratio II/XII: KI hCA II / KI hCA XII
hCA II = hCA II (Homo sapiens, UniProt P00918); test: stopped flow CO2 hydrase assay, hCA II; format: biochemical
hCA I = hCA I (Homo sapiens, UniProt P00915); test: stopped flow CO2 hydrase assay, hCA I; format: biochemical
hCA I, sequence (P00915 whole entry): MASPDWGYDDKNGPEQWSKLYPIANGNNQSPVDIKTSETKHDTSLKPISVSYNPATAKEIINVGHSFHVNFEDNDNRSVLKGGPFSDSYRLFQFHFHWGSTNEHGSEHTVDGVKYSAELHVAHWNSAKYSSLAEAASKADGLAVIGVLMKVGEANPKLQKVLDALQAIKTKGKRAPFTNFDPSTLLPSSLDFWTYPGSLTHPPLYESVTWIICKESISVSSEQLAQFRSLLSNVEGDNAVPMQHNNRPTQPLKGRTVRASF

hCA IX = hCA IX (Homo sapiens, UniProt Q16790); test: biochemical; conditions: for Selectivity ratio I/IX: KI hCA I / KI hCA IX; for Selectivity ratio II/IX: KI hCA II / KI hCA IX
[1] = tested on: MCF-7 breast cancer cell line; test: SRB cell viability assay, MCF-7; format: cell-based, human; conditions: for IC50: Homo sapiens, MCF7, 72 h, read-out: IC50 MCF-7; for Selectivity index MCF-7: normal HSF versus MCF-7
A549 lung cancer cells = test: SRB cell viability assay, A549; format: cell-based, human; conditions: for IC50: Homo sapiens, A549, 72 h, read-out: IC50 A549; for Selectivity index A549: normal HSF versus A549
[2] = tested on: normal human skin fibroblast cell line HSF; test: SRB cell viability assay, HSF normal cells; format: cell-based; conditions: 72 h, read-out: IC50 HSF
[3] = KI hCA XII, 15 min preincubation, mean from 3 different assays
[4] = Log KI hCA XII (experimental), log of KI in nM, compounds of this paper
[5] = KI hCA IX, 15 min preincubation, mean from 3 different assays
[6] = log KI hCA IX (experimental), log of KI in nM, compounds of this paper
[7] = log of KI in nM, compounds of this paper
[8] = read-out: KI hCA XII, 15 min preincubation, mean from 3 different assays
[9] = read-out: KI hCA II, 15 min preincubation, mean from 3 different assays
[10] = read-out: KI hCA I, 15 min preincubation, mean from 3 different assays
[11] = read-out: KI hCA IX, 15 min preincubation, mean from 3 different assays

hCA XII, sequence (O43570 25-354): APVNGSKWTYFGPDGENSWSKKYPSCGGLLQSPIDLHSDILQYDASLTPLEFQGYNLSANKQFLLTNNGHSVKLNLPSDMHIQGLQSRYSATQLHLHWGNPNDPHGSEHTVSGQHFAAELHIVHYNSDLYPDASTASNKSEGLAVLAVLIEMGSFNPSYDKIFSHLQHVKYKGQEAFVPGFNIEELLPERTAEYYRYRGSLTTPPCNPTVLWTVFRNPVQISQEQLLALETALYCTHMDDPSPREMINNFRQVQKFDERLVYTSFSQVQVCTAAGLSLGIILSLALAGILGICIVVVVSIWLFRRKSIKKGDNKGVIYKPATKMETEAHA

Compound | Selectivity ratio I/XII (hCA XII) | Selectivity ratio II/XII (hCA XII) | Ki (hCA XII; [3]) [nM] | Ki (hCA XII; [4]) [nM] | Ki (hCA II) [µM] | Ki (hCA I) [µM] | Selectivity ratio I/IX (hCA IX) | Selectivity ratio II/IX (hCA IX) | Ki (hCA IX; [5]) [nM] | Ki (hCA IX; [6]) [nM] | IC50 [1] [µM] | IC50 (A549 lung cancer cells) [µM] | IC50 [2] [µM] | further results
NS(=O)(=O)c1ccc(NCC(=O)NN=C2C(=O)N(CC(=O)Nc3ccccc3Cl)c3ccccc32)cc1 [4f, N-(2-Chlorophenyl)-2–(2-oxo-3–(2-(2–(4-sulfamoylphenylamino)acetyl)hydrazono)indolin-1-yl)acetamide] | 5.823 | 3.937 | 754 | 753 | 2.97 | 4.39 | 0.819 | 0.554 | 5360 | 5360 | – | – | – | –
NS(=O)(=O)c1ccc(NCC(=O)NN=C2C(=O)N(CC(=O)Nc3ccc(Cl)cc3)c3ccccc32)cc1 [4b, N-(4-Chlorophenyl)-2–(2-oxo-3–(2-(2–(4-sulfamoylphenylamino)acetyl)hydrazono)indolin-1-yl)acetamide] | 1.670 | 0.909 | 5050 | 5050 | 4.59 | 8.43 | 2.149 | 1.169 | 3920 | 3930 | – | – | – | –
N-(3-Bromophenyl)-2–(2-oxo-3–(2-(2–(4-sulfamoylphenylamino)acetyl)hydrazono) indolin-1-yl)acetamide [4c] | 1.029 | 0.320 | – | – | – | – | 3.596 | 1.119 | – | – | – | – | – | Log KI hCA XII (experimental) (hCA XII; [7]): 3.359; Ki (hCA XII; [8]): 2280 nM; Ki (hCA II; [9]): 0.732 µM; Ki (hCA I; [10]): 2.35 µM; log KI hCA IX (experimental) (hCA IX; [7]): 2.816; Ki (hCA IX; [11]): 654 nM
N-(3-Methoxyphenyl)-2–(2-oxo-3–(2-(2–(4-sulfamoylphenylamino)acetyl) hydrazono)indolin-1-yl)acetamide [4e] | 6.122 | 4.416 | – | – | – | – | 2.957 | 2.133 | – | – | – | – | – | Log KI hCA XII (experimental) (hCA XII; [7]): 3.182; Ki (hCA XII; [8]): 1520 nM; Ki (hCA II; [9]): 6.72 µM; Ki (hCA I; [10]): 9.32 µM; log KI hCA IX (experimental) (hCA IX; [7]): 3.498; Ki (hCA IX; [11]): 3150 nM
NS(=O)(=O)c1ccc(NCC(=O)NN=C2C(=O)N(CC(=O)Nc3ccccc3Br)c3ccccc32)cc1 [4g, N-(2-Bromophenyl)-2–(2-oxo-3–(2-(2–(4-sulfamoylphenylamino)acetyl)hydrazono)indolin-1-yl)acetamide] | 7.221 | 2.373 | 843 | 843 | 2 | 6.09 | 0.829 | 0.272 | 7340 | 7330 | – | – | – | –
Cc1ccc(NC(=O)CN2C(=O)C(=NNc3ccc(S(N)(=O)=O)cc3)c3ccccc32)cc1 [3d, 2–(2-Oxo-3–(2-(4-sulfamoylphenyl)hydrazono)indolin-1-yl)-N-p-tolylacetamide] | 0.923 | 0.112 | 710 | 710 | 0.0799 | 0.656 | 7.672 | 0.934 | 85.5 | 86.1 | 0.869 | 5.12 | 1.46 | Selectivity index MCF-7 [1]: 1.68; Selectivity index A549 (A549 lung cancer cells): 0.28
NS(=O)(=O)c1ccc(NN=C2C(=O)N(CC(=O)Nc3ccccc3)c3ccccc32)cc1 [3a, 2–(2-Oxo-3–(2-(4-sulfamoylphenyl)hydrazono)indolin-1-yl)-N-phenylacetamide] | 1.088 | 0.071 | 3650 | 3650 | 0.26 | 3.97 | 18.384 | 1.203 | 216 | 216 | – | – | – | –
NS(=O)(=O)c1ccc(NC(=O)CN2C(=O)C(=O)c3ccccc32)cc1 [2h, 2–(2,3-Dioxoindolin-1-yl)-N-(4-sulfamoylphenyl)acetamide] | 5.701 | 0.742 | 7.91 | 8 | 0.00587 | 0.0451 | 0.673 | 0.087 | 67 | 67 | > 100 | > 100 | > 100 | cytotoxic activity against MCF-7 [1]: no cytotoxic activity; cytotoxic activity against A549 (A549 lung cancer cells): no cytotoxic activity
2–(2-Oxo-3–(2-(2–(4-sulfamoylphenylamino)acetyl)hydrazono)indolin-1-yl)-N-m-tolylacetamide [4d] | 1.412 | 0.076 | – | – | – | – | 14.824 | 0.797 | – | – | – | – | – | Log KI hCA XII (experimental) (hCA XII; [7]): 3.78; Ki (hCA XII; [8]): 6020 nM; Ki (hCA II; [9]): 0.458 µM; Ki (hCA I; [10]): 8.51 µM; log KI hCA IX (experimental) (hCA IX; [7]): 2.759; Ki (hCA IX; [11]): 574 nM
NS(=O)(=O)c1ccc(NN=C2C(=O)N(CC(=O)Nc3ccc(Br)cc3)c3ccccc32)cc1 [3c, N-(4-Bromophenyl)-2–(2-oxo-3–(2-(4-sulfamoylphenyl)hydrazono)indolin-1-yl)acetamide] | 1.245 | 0.092 | 612 | 612 | 0.0564 | 0.762 | 13.392 | 0.991 | 56.9 | 57 | > 100 | 5.9 | > 100 | Selectivity index A549 (A549 lung cancer cells): > 16.94
NS(=O)(=O)c1ccc(NCC(=O)NN=C2C(=O)N(CC(=O)Nc3ccccc3)c3ccccc32)cc1 [4a, 2–(2-Oxo-3–(2-(2–(4-sulfamoylphenylamino)acetyl)hydrazono)indolin-1-yl)-N-phenylacetamide] | 0.683 | 0.118 | 6790 | – | 0.804 | 4.64 | 5.741 | 0.995 | 808 | 807 | – | – | – | –
NS(=O)(=O)c1ccc(NN=C2C(=O)N(CC(=O)Nc3ccc(Cl)cc3)c3ccccc32)cc1 [3b, N-(4-Chlorophenyl)-2–(2-oxo-3–(2-(4-sulfamoylphenyl)hydrazono)indolin-1-yl)acetamide] | 1.881 | 0.953 | 474 | 474 | 0.452 | 0.892 | 7.252 | 3.674 | 123 | 123 | – | – | – | –
COc1cccc2c1C(=O)c1c(O)c3c(c(O)c1C2=O)C[C@@](O)(C(=O)CO)C[C@@H]3O[C@H]1C[C@H](N)[C@H](O)[C@H](C)O1 [Doxorubicin, reference compound] | – | – | – | – | – | – | – | – | – | – | 0.63 | 0.19 | 0.22 | Selectivity index MCF-7 [1]: 0.349; Selectivity index A549 (A549 lung cancer cells): 1.157
